Measured values published in ChEMBL document CHEMBL1201862, “PubChem BioAssay data set” (2004).
Active and inactive are the calls of the source.

Experiments:
[1] = target: T1, Polyadenylate-binding protein 1 (Homo sapiens, UniProt P11940); assay: MLLE binding blockers, Cy5 peptide tracer – biochemical, fluorescence polarization, Cy5-PAM2 peptide, secondary, miRNA deadenylation inhibitor project, dose response (AID 602260); assay type: functional; details: read-out: IC50_Mean
[2] = target: T1, Polyadenylate-binding protein 1; assay: MLLE domain peptide-binding blockers, IC50 – biochemical, fluorescence polarization, FITC-PAM2 peptide, dose response (AID 602259); assay type: functional; details: read-out: IC50_Mean
[3] = tested on: Streptococcus sp. 'group A'; assay: Streptococcus pyogenes SK(-)GAS viability under kanamycin – luminescence, BacTiterGlo, confirmation, counter-screen for streptokinase expression inhibitor project, dose response (AID 1900); assay type: functional, organism-based
Streptokinase A = target: T2, Streptokinase A (Streptococcus pyogenes serotype M1, UniProt P10520); assay: viability-normalized secreted streptokinase activity reduction – plasminogen activation absorbance, OD405, dose response (AID 1914); assay type: functional, Streptococcus pyogenes M1 GAS;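 further: secreted streptokinase activity via plasminogen activation per viability signal from cell pellet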
T2 sequence (P10520 whole entry): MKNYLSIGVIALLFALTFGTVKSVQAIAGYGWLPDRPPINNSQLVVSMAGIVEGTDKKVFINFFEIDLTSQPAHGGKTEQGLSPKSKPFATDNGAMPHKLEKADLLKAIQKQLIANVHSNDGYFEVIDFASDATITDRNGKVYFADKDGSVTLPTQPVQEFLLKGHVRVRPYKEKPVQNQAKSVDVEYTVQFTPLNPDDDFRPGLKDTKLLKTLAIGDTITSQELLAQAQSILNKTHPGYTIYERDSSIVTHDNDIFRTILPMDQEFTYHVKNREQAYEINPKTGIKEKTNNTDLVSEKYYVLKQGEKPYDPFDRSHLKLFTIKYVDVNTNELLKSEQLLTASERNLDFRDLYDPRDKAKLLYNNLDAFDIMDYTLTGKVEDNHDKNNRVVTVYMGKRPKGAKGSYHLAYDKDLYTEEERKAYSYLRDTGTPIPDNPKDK

[4] = Trypanosoma cruzi growth suppression in host cells – NIH3T3 host cells, beta-gal luminescence, confirmation (AID 2044); assay type: functional, cell-based;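 further: intracellular parasites grown in NIH/3T3 mouse fibroblasts as host cells; luminescent beta-galactosidase reporter signal from transgenic T. cruzi replicating inside host cells; inhibitors lower the luminescence signal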
[5] = NIH3T3 cell viability loss – ATP luminescence, mouse fibroblasts, counter-screen, dose response (AID 2010); assay type: functional, cell-based;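 further: cells exposed to compound for about 90 hours before reading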
Streptococcus = assay: GAS UMAA2166 growth inhibition – luminescence, BacTiterGlo, counter-screen for streptokinase expression inhibitor project, dose response (AID 1915); assay type: functional, organism-based;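 further: potency for reduction of bacterial viability or growth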
[6] = target: Photoreceptor-specific nuclear receptor (Homo sapiens, UniProt Q9Y5X4); assay type: functional, cell-based;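 further: CHO-S cells with Gal4-NCOR and VP16-NR2E3 two-hybrid luciferase reporter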
Sequence of Photoreceptor-specific nuclear receptor (Q9Y5X4 whole entry, the tested form may be a part): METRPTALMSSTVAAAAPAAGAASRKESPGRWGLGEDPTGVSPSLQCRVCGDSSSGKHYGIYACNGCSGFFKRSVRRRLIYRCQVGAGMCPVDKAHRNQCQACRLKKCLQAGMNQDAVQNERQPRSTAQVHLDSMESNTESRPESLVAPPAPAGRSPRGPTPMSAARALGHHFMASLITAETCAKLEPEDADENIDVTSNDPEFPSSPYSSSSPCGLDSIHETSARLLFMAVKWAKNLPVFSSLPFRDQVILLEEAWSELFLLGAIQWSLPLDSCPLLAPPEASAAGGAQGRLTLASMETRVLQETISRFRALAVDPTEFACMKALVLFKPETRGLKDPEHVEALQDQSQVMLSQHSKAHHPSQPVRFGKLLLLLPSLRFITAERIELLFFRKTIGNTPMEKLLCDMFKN

Fatty acid synthase [7] = target: T3, Fatty acid synthase (Homo sapiens, UniProt P49327); assay: inhibition of human FAS-TE enzyme activity – biochemical, endpoint fluorescence intensity, uHTS hits, dose response (AID 624327); assay type: functional;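 further: fluorescence from hydrolysis of an O-methyl fluorescein acyl ester substrate by the enzyme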
T3 sequence (P49327 whole entry): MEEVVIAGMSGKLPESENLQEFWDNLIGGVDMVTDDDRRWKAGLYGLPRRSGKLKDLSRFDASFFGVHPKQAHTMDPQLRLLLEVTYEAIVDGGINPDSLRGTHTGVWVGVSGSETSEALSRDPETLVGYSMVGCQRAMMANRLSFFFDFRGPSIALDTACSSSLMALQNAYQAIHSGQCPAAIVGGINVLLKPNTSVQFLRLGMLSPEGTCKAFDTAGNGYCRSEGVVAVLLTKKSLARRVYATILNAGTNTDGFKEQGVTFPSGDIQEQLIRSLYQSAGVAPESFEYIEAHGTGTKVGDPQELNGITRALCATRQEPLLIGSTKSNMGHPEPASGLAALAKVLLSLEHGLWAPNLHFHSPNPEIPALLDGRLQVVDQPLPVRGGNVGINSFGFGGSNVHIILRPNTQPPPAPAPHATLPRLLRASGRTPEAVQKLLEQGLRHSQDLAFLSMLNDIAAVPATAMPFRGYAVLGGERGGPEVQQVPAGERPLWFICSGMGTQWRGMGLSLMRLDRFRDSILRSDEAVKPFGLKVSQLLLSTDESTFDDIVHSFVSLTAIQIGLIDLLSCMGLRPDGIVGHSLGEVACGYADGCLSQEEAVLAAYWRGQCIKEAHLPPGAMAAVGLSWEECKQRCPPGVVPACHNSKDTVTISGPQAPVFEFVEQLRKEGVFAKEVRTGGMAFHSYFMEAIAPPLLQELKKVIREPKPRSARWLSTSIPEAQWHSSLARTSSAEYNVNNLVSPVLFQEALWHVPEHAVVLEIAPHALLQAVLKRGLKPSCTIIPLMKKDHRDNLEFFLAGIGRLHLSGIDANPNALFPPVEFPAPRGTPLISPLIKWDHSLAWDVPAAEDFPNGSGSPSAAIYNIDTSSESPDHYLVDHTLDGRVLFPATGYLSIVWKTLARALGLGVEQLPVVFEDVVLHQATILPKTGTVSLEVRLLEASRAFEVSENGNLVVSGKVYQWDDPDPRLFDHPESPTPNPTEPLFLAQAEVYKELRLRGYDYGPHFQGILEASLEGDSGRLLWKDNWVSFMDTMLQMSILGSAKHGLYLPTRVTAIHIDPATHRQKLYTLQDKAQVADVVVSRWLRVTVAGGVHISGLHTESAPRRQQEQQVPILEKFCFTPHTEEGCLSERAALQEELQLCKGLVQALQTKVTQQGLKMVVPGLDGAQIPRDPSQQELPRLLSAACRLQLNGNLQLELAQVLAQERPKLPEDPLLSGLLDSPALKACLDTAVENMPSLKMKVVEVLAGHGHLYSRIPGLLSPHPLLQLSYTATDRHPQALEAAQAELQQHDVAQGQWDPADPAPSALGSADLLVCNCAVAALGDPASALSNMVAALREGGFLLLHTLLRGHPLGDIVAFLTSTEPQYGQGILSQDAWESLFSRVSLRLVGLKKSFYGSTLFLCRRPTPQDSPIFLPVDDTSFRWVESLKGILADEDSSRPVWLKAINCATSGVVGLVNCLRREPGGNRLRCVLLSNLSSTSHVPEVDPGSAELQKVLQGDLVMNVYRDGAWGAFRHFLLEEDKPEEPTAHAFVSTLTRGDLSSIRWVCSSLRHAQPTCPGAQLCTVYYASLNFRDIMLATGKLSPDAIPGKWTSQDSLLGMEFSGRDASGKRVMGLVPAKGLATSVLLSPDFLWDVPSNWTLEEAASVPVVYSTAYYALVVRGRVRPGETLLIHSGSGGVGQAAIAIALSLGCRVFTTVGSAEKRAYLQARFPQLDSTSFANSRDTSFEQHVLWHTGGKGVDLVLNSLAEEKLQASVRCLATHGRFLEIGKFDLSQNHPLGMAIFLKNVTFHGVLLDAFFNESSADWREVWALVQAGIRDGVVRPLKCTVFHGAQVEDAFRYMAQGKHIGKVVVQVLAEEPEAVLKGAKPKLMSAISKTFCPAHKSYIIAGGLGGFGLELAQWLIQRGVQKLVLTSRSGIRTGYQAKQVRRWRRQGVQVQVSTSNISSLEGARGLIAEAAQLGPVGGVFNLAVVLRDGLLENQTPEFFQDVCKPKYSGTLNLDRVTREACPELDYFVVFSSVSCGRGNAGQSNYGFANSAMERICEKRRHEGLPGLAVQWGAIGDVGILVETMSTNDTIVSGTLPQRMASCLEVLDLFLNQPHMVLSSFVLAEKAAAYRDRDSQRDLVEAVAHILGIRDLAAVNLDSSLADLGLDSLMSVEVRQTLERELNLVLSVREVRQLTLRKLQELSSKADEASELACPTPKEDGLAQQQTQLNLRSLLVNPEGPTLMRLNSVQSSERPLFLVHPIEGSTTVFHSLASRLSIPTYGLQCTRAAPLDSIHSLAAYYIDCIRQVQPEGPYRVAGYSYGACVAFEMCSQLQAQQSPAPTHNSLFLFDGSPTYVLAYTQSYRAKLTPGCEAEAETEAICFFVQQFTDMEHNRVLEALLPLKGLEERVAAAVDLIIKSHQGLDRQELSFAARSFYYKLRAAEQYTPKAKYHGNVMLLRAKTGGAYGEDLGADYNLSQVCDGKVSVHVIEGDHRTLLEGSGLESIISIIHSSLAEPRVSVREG

Fatty acid synthase [8] = target: T3, Fatty acid synthase; assay: inhibition of human FAS-TE enzyme activity – biochemical, kinetic fluorescence intensity, dose response (AID 624326); assay type: functional;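 further: rate of fluorescence rise from hydrolysis of a fluorogenic O-methyl fluorescein ester substrate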
[9] = target: Low molecular weight phosphotyrosine protein phosphatase (Homo sapiens, UniProt P24666); assay type: functional; details: read-out: IC50_Mean;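 further: Dose-response confirmation assay measuring inhibition of LMPTP enzyme activity by fluorescence intensity read-out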
Sequence of Low molecular weight phosphotyrosine protein phosphatase (P24666 whole entry): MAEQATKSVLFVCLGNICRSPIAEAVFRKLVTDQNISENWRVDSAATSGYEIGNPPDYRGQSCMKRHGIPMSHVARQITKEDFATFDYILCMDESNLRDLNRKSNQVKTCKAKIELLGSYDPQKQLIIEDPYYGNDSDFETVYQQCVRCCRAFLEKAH

[10] = luciferase reporter signal suppression in cells – H4 neuroglioma cells, luminescence, dose response (AID 1990); assay type: functional, cell-based
[11] = Luminescence Cell-Based Dose Response HTS to Identify Inhibitors of 5'UTR Stem-Loop Driven Prion Protein mRNA Translation in H4 Neuroglioblastoma Cells. [Related pubchem assays: 1827 (Project Summary), 1813 (Primary HTS)]; assay type: functional
[12] = alpha-synuclein stem-loop luciferase translation blockers – H4 neuroglioma cells, luminescence, confirmation (AID 1988); assay type: functional, cell-based
[13] = viability of PTEN-deleted HCT116 cells – cell-based, HCT116 PTEN knockout, dose response (AID 1047); assay type: functional;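 further: HCT116 colon tumor cells with PTEN knocked out; cells exposed to compound for 60 hours before readout; potency for loss of cell viability measured by luminescence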
[14] = viability of HCT116 lacking mutant beta-catenin – cell-based, human colon tumor, dose response (AID 1045); assay type: functional;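 further: HCT116 colon tumor cells with beta catenin knocked out; cells exposed to compound for 60 hours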
[15] = target: Neurotensin receptor type 1 (Homo sapiens, UniProt P30989); assay type: functional;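 further: Image-based confirmatory dose-response assay measuring agonist activity at NTR1; NTR1-expressing U2OS osteosarcoma cells imaged for beta-arrestin GFP spot formation; agonist potency where compounds increase beta-arrestin recruitment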
Sequence of Neurotensin receptor type 1 (P30989 whole entry): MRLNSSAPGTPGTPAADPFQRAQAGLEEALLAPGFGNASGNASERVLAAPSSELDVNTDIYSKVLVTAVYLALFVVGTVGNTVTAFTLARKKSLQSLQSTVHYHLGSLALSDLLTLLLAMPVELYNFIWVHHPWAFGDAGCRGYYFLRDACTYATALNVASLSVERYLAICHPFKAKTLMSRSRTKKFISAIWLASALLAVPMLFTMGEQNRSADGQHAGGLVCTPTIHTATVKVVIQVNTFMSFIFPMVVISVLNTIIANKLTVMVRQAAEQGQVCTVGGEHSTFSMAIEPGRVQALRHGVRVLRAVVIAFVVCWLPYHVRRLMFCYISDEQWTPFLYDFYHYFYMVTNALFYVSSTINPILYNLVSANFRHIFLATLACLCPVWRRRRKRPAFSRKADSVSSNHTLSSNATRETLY

[16] = HEK-293T viability loss after treatment – luminescence, T-cell screen hits, cytotoxicity control for TCR NF-kB inhibitor project, dose response (AID 489026); assay type: functional, cell-based;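 further: cells exposed to compound about 14 hours before the viability readout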
Insulin-degrading enzyme [17] = target: T4, Insulin-degrading enzyme (Homo sapiens, UniProt P14735); assay: recombinant IDE activation, cell-free – biochemical, fluorescence polarization, counter-screen for IDE activator project, dose response (AID 588681)
T4 sequence (P14735 whole entry): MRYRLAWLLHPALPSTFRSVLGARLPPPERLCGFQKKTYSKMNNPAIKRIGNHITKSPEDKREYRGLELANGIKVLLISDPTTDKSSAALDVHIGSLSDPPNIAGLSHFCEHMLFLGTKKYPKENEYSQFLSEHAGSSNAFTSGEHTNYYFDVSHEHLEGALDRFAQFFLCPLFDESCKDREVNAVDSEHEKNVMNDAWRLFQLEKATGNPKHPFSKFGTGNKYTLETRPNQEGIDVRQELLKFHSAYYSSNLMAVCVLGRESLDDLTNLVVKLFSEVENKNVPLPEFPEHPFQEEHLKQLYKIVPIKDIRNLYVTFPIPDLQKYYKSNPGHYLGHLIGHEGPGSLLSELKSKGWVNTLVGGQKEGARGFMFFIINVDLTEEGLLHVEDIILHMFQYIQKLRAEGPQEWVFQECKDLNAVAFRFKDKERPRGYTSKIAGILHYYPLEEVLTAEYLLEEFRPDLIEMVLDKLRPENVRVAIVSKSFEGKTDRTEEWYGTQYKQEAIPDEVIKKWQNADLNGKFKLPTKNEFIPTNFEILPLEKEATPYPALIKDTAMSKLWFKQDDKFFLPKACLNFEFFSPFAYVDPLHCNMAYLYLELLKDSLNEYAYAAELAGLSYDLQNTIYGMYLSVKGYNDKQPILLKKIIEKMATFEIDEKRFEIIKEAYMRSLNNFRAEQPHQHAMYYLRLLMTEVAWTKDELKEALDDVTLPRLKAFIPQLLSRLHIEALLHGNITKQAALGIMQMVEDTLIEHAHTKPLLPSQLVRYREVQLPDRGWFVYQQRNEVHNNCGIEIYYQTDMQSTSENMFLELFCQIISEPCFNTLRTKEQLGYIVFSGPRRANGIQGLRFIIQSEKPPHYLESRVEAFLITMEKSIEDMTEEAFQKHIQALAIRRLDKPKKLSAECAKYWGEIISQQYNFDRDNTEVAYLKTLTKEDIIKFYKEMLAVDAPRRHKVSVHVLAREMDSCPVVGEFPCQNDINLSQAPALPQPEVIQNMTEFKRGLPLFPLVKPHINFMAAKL

Insulin-degrading enzyme [18] = target: T4, Insulin-degrading enzyme; assay: cellular IDE activation of Abeta substrate cleavage – fluorescence polarization, HEK cells, dose response (AID 588439); assay type: functional, cell-based
INS1 = assay: INS-1E survival protection against cytokine death – cell-based, luminescence, retest, dose response (AID 449756); assay type: functional; details: Rattus norvegicus;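 further: cell death triggered by IL-1 beta plus TNF-alpha plus IFN-gamma mixture; protective hits raise ATP signal compared with cytokine alone wells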
HEK293 [19] = assay: membrane integrity loss in HEK cells – cell-based, fluorescence, cytotoxicity control for IDE activator project, dose response (AID 588440); assay type: functional; details: Homo sapiens;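 further: cytotoxicity by LDH release measuring loss of membrane integrity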
HEK293 [20] = assay: optical interference in Abeta FP readout, dose response, artefact control for IDE activator project, biochemical, fluorescence polarization (AID 588442); assay type: functional, cell-based; details: Homo sapiens
H9c2 = assay: cells; assay type: functional, cell-based; details: Rattus norvegicus, H9c2, Myocardium;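 further: confirmatory concentration-response retest of ultra-high-throughput screening hits for modulation of myocardial damage; cell death induced by hydrogen peroxide oxidative stress; compound pretreatment for 60 min then peroxide exposure for 2 h; potency is for protecting the cells against peroxide damage rather than for killing them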
Melanocortin receptor 4 = Melanocortin receptor 4 (Homo sapiens, UniProt P32245); assay type: functional, cell-based;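 further: Cell-based assay with luminescence read-out, confirmatory dose-response testing for agonist activity of biased ligands at MC4R; human U2OS cells with tagged receptor and beta-arrestin; potency of agonists that increase receptor coupling to beta-arrestin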
Sequence of Melanocortin receptor 4 (P32245 whole entry): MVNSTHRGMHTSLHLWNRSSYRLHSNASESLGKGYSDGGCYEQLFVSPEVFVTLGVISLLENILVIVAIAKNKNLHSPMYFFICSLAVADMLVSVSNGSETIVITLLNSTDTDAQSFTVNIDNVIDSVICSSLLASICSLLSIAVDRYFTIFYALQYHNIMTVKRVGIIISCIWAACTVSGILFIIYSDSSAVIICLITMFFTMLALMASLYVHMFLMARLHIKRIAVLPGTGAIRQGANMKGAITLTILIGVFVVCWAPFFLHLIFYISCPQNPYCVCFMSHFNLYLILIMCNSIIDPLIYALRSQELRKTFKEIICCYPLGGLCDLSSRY

[21] = target: Mitochondrial peptide methionine sulfoxide reductase (Bos taurus, UniProt P54149); assay type: functional;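 further: absorbance read-out, biochemical high-throughput dose-response screen for MsrA inhibitors, confirmatory; recombinant bovine MsrA coupled to E. coli TrxB with NADPH and selenocystamine; potency is for inhibitors of MsrA activity on DMSO substrate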
Sequence of Mitochondrial peptide methionine sulfoxide reductase (P54149 whole entry): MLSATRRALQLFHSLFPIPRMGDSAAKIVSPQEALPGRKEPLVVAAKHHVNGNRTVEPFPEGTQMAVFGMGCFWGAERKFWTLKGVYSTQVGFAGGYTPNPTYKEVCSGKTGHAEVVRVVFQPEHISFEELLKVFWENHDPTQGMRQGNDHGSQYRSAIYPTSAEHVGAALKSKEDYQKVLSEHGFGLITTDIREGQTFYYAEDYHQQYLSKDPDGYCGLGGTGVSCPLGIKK

Lethal factor = Lethal factor (Bacillus anthracis, UniProt P15917); assay: High-throughput multiplex microsphere dose response for inhibitors of toxin protease, specifically Lethal Factor protease, compounds from Cherry Pick 02.; assay type: functional; details: read-out: EC50_MICROM
Bcl-2-related protein A1 = target: T5, Bcl-2-related protein A1 (Mus musculus, UniProt Q07440); assay type: functional;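 further: confirmatory dose–response counterscreen on Bfl-1, used to check hits from a UBC13 polyubiquitin inhibitor campaign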
T5 sequence (Q07440 whole entry): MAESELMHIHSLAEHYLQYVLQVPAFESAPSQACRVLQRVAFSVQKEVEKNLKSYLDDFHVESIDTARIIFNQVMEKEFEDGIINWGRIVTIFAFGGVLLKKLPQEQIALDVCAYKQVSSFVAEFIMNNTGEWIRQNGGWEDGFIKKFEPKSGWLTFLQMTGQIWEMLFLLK

[22] = target: T6, Ubiquitin-conjugating enzyme E2 N (Homo sapiens, UniProt P61088); assay type: functional
T6 sequence (P61088 whole entry): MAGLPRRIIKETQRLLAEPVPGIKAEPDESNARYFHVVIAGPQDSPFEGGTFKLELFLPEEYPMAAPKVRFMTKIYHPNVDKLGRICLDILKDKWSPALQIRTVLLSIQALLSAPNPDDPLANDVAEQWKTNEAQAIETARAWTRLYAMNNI

[23] = target: T6, Ubiquitin-conjugating enzyme E2 N; assay type: functional; remark: listed apart in the source
[24] = target: T7, Apoptotic protease-activating factor 1 (Homo sapiens, UniProt O14727); assay type: functional
T7 sequence (O14727 whole entry): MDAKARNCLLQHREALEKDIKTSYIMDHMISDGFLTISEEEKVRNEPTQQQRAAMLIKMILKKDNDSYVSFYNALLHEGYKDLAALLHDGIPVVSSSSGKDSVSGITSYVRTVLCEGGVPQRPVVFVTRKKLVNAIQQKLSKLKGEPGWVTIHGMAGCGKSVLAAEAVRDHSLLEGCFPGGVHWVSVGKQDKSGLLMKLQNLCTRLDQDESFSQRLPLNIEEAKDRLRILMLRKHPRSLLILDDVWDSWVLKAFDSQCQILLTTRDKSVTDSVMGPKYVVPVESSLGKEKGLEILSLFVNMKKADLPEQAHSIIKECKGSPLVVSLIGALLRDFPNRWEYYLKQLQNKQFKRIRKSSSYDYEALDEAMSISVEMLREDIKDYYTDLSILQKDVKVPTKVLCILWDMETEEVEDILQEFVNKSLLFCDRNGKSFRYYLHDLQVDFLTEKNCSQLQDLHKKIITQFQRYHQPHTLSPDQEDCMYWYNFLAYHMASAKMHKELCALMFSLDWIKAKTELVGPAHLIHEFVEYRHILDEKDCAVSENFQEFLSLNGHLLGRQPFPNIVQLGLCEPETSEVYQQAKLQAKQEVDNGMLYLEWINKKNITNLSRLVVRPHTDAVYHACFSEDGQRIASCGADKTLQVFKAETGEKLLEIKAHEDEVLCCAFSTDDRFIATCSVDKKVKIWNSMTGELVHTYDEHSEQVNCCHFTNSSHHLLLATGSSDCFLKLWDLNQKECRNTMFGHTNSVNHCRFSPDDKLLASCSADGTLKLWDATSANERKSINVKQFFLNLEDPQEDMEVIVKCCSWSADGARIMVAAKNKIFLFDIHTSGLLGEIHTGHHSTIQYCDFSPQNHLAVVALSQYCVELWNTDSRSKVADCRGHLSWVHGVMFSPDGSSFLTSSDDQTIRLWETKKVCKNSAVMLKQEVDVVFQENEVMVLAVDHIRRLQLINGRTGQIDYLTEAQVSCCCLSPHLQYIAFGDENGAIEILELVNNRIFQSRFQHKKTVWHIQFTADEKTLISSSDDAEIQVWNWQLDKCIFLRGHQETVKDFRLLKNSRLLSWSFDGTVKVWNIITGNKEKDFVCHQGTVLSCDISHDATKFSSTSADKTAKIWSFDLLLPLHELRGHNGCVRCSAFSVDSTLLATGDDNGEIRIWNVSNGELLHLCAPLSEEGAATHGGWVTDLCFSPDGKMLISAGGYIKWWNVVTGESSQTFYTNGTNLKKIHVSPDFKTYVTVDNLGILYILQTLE

T1 sequence (P11940 whole entry, the tested form may be a part): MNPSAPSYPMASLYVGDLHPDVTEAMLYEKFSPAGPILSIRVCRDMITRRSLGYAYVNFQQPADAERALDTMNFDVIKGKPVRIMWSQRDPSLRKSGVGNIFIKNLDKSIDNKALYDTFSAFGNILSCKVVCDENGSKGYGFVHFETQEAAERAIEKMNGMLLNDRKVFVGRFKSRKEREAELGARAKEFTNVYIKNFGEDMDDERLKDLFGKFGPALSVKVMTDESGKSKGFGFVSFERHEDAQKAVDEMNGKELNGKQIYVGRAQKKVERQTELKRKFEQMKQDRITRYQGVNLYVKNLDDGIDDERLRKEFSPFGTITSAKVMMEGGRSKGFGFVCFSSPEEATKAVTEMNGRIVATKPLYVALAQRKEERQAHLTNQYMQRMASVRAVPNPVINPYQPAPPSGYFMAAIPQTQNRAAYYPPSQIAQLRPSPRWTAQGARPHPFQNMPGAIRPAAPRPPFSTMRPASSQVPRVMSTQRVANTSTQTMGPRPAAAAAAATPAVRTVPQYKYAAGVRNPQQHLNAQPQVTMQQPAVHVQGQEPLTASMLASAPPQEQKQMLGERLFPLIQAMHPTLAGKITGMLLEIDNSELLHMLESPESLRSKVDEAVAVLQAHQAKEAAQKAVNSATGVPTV

CCOC(=O)C(C)Sc1nnc(Cc2cc(O)nc(O)n2)n1-c1ccc(Cl)cc1 (stereo unspecified)
IC50 [1]: > 66 µM (inactive) | IC50 [2]: > 66 µM (inactive)

CCc1cccc2sc(N3CCN(C(=O)c4ccc([N+](=O)[O-])o4)CC3)nc12
EC50 [3]: 5.99 µM (active) | EC50 (Streptokinase A): 2.38 µM (active) | EC50 [4]: 307 nM (active) | EC50 [5]: 5.4 µM (active) | EC50 (Streptococcus): 12.1 µM (active) | IC50 [6]: 4.71 µM (active) | IC50 (Fatty acid synthase [7]): 13.3 µM (active) | IC50 (Fatty acid synthase [8]): 12.9 µM (active)

CCn1cc(C(=O)O)c(=O)c2cc(F)c(N3CCN(C(=S)NC(=O)c4cccc(F)c4)CC3)cc21
IC50 [9]: 8.61 µM (active)

CCCOc1ccc(C(=O)NC(=S)N2CCN(c3ncc4c(=O)c(C(=O)O)cn(CC)c4n3)CC2)cc1
IC50 [9]: 9.82 µM (active)

COc1ccc(Cn2c(SCc3ccc(C)cc3)nc3cc(OC)c(OC)cc3c2=N)cc1Cl
EC50 [10]: > 120 µM (not active) | EC50 [3]: 2.52 µM (active) | EC50 [11]: > 120 µM (not active) | EC50 [12]: > 120 µM (not active) | EC50 (Streptokinase A): 5.92 µM (active) | EC50 [13]: 3.54 µM (active) | EC50 [14]: 3.32 µM (active) | EC50 (Streptococcus): 8.22 µM (active) | EC50 [15]: 5.35 µM (active) | IC50 [16]: > 80 µM (inactive) | EC50 (Insulin-degrading enzyme [17]): > 54.7 µM (inactive) | EC50 (Insulin-degrading enzyme [18]): 15.5 µM (inactive) | AC50 (INS1): 3.85 µM (active) | IC50 (HEK293 [19]): 15.9 µM (inactive) | EC50 (HEK293 [20]): > 54.7 µM (inactive)

CC(=O)Nc1ccc(-c2csc(NC(=O)Nc3ccccc3)n2)cc1
IC50 (H9c2): 38.3 µM (inactive) | EC50 (Melanocortin receptor 4): > 89.2 µM (inactive)

COc1cc(OC)c(OC)cc1/C=N/NC(=O)c1ccc(=O)n(C)c1
IC50 [21]: 102 µM (inactive)

Cn1ccc2c(-c3ccc(F)nc3)cc3c(c21)C1CCC3C1 (stereo unspecified)
EC50 (Lethal factor): 10.6 µM (active)

Nc1nnc2cc(Br)ccc2n1
IC50 [1]: > 66 µM (inactive) | IC50 [2]: 35.7 µM (inactive)

C#CCOCCOCCOCCNc1nc(N2CCN(C(=O)CCCCCCCCCCNC(=O)[C@H]([C@@H](C)CC)n3cc(CCCCCN)nn3)CC2)nc(N2CCN(C(=O)CCCCCCCCCCNC(=O)[C@H](CO)n3cc(CCCCCN)nn3)CC2)n1
IC50 (Bcl-2-related protein A1): > 20 µM (inactive) | IC50 [22]: 4.22 µM (active) | IC50 [23]: 2.64 µM (active) | EC50 (Insulin-degrading enzyme [17]): 9.67 µM (active) | IC50 [24]: 25 µM (active) | EC50 (Insulin-degrading enzyme [18]): > 6.08 µM (active) | IC50 (HEK293 [19]): 9.37 µM (active) | EC50 (HEK293 [20]): > 56 µM (inactive)
